Laboratory results published in patent publication US20100209537A1, “Metal complexes with anticancer activity” (priority 2009, published 2010).

Experiments:
[1] = Solubility in water and organic solvents; assay type: physicochemical
[2] = Stability at room temperature; assay type: physicochemical
[3] = tested on: ovarian cancer cell line A2780; assay: MTT assay, ovarian cancer cell line A2780; assay type: cell-based, human; details: n = 3, A2780
Procedure: MTT [3-(4,5-dimethylthiazol-2yl)-2,5-diphenyltetrazolium bromide] method:
MTT is used to measure the metabolic activity of viable cells. The assay is non-radioactive and can be performed entirely in a micro titer plate (MTP). It is suitable for measuring cell proliferation, cell viability or cytotoxicity. The reaction produces water-insoluble formazan salt that must be solubilized. Procedure involves culturing the cells in a 96-well micro titer plate, and then incubating them with MTT solution for approximately 2 hours. During incubation period, viable cells convert MTT to a water-insoluble formazan dye. The formazan dye in the MTP is solubilized and quantified with an ELISA plate reader. The absorbance directly correlates with the cell number. This can be applicable for adherent cells cultured in MTP.
Compounds were tested at concentrations of 3 and 30 μg/ml by MTT assay using the ovarian cancer cell line A2780.

| Compound | solubility in dimethylformamide and dimethylsulphoxide [1] | solubility in methanol and acetone [1] | solubility in water [1] | stability at room temperature [2] | Percent surviving cells of DMSO control (Mean) ([3]; 3 μg/ml) [%] | Percent surviving cells of DMSO control (Mean) ([3]; 30 μg/ml) [%] |
| --- | --- | --- | --- | --- | --- | --- |
| Oc1ccccc1C=NNc1nc2ccccc2nc1Cl [RM2, 2-hydroxybenzaldehyde-1-(3-chloro-2-quinoxalinyl) hydrazone] | fairly soluble | very slightly soluble | insoluble | stable | 0.4 | 0.4 |
| COc1cccc(C=NNc2nc3ccccc3nc2Cl)c1O [RM5, 2-Hydroxy-3-methoxybenzaldehyde-1-(3-chloro-2-quinoxalinyl)-hydrazone] | fairly soluble | very slightly soluble | insoluble | stable | 0.6 | 0.2 |
| Oc1ccc2ccccc2c1C=NNc1nc2ccccc2nc1Cl [RM7, 2-hydroxy-1-naphthaldehyde-1-(3-chloro-2-quinoxalinyl)hydrazone] | fairly soluble | very slightly soluble | insoluble | stable | 6.6 | 0.9 |
| Oc1ccc2ccccc2c1C=NNc1nc2ccccc2nc1Cl [RM8, 2-hydroxy-1-naphthaldehyde-1-(3-chloro-2-quinoxalinyl)hydrazone] | fairly soluble | very slightly soluble | insoluble | stable | 0.3 | 0.1 |
| Clc1nc2ccccc2nc1NN=Cc1ccccn1 [RM10, 2-pyridinecarbaldehyde-2-(3-chloro-2-quinoxalinyl)hydrazone] | fairly soluble | very slightly soluble | insoluble | stable | 4.6 | 1 |

Second part, led by results:

| solubility in dimethylformamide and dimethylsulphoxide [1] | solubility in methanol and acetone [1] | solubility in water [1] | stability at room temperature [2] | Compound | Percent surviving cells of DMSO control (Mean) ([3]; 3 μg/ml) [%] | Percent surviving cells of DMSO control (Mean) ([3]; 30 μg/ml) [%] |
| --- | --- | --- | --- | --- | --- | --- |
| fairly soluble | very slightly soluble | insoluble | stable | Clc1nc2ccccc2nc1NN=Cc1ccccn1 [RM11, 2-pyridinecarbaldehyde-2-(3-chloro-2-quinoxalinyl)hydrazone] | 0.4 | 0.7 |
| fairly soluble | very slightly soluble | insoluble | stable | Clc1nc2ccccc2nc1NN=Cc1ccco1 [RM14, 2-furaldehyde-2-(3-chloro-2-quinoxalinyl)hydrazone] | 13.2 | 0.7 |
